Measurements as given in patent publication US10519162B2, “6,7-dihydropyrazolo[1,5-α]pyrazin-4(5H)-one compounds and their use as negative allosteric modulators of mGluR2 receptors” (Janssen Pharmaceutica NV, priority 2014, dated 2019).

Columns and labels:
Male Wiga Wistar rats = assay: Reversal of LY-404039-induced decrease of palpebral opening in apomorphine-challenged rats (APO LY-404039); assay type: in vivo, rat; settings: for ED50: Rattus norvegicus, apomorphine challenged rats
Experimental: B) In Vivo Pharmacology 1) Reversal of LY-404039-Induced Decrease of Palpebral Opening in Apomorphine-Challenged Rats.
Male Wiga Wistar rats (Crl:WI; Charles River Germany; 220±40 g) were housed under standard laboratory conditions (21±2° C.; 50-65% relative humidity; light-dark cycle set at 12 h; lights on at 6.00 h) and fasted overnight prior to the start of the experiments (tap water remained available ad libitum). During the test period, they were housed in individual cages. Palpebral opening was scored every 5 min over the first hour after injection of apomorphine (1.0 mg/kg, i.v.) in animals either pretreated or not pretreated with LY-404039 (2.5 mg/kg, s.c.) at 1 h prior to the apomorphine injection. The animals were also pretreated with test compound or solvent at a predefined interval before apomorphine challenge. The score system was: (5) exophthalmos, (4) wide open, (3) open for three-quarters, (2) half open, (1) open for one-quarter, (0) closed. The scores for palpebral opening were cumulated over the 60-min observation period.
In animals receiving apomorphine alone the median palpebral opening is 43 whereas in animals receiving apomorphine and LY-404039, the median palpebral opening is 17.

human mGlu2 receptor = target: T1, human mGlu2 receptor (Homo sapiens, UniProt Q14416); assay: [35S]GTPγS binding assay (mGluR2 negative allosteric modulation, glutamate ~EC80 60 μM); assay type: biochemical; settings: for GTPγS-hmGluR2 anGT Emax / Emax: maximal % inhibition relative to the control glutamate response (EC80 glutamate); for IC50: membranes from CHO cells transfected with human mGlu2 receptor, glutamate ~EC80 (60 μM), pIC50 = −log IC50 (M), read-out: GTPγS-hmGluR2 anGT pIC50 (converted); for Emax: read-out: GTPγS-hmGluR2 anGT Emax
T1 construct: expressed in transfected cells; host or cells: CHO cells
Experimental: 1) [^35S]GTPγS Binding Assay
[^35S]GTPγS Binding Assay
Total reaction volume was 200 μl. […] Membrane-bound radioactivity was counted in a Topcount.

rats = assay: Reversal of the effect of the mGluR2 PAM JNJ-42153605-induced inhibition of scopolamine-induced hyperlocomotion (SCOP JNJ-42153605); assay type: in vivo, rat; settings: Rattus norvegicus, rats, reversal criterion total distance >1500 cm
Outline: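 Rats got test compound or vehicle 60 min pre-recording, JNJ-42153605 (20 mg/kg, i.v.) 30 min pre-recording, then scopolamine (0.16 mg/kg, i.v.) just before. Total distance over the first 30 min was video-tracked; all-or-none reversal criterion: total distance >1500 cm.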

Wiga rats = assay: Induction of mydriasis (MYD); assay type: in vivo; settings: Rattus norvegicus, pupil diameter >25 units, 1-3 h post-administration
Experimental: 3) Induction of Mydriasis
The pupil diameter of Wiga rats was measured with a microscopic micrometer (1 unit=1/24 mm). Criteria for drug-induced effects: pupil diameter >25 units for mydriasis (in controls: 1.9%) 1, 2 or 3 h post-administration of the test compound (wherein the maximum pupil diameter over the full 3 h period is reported).

Male Long Evans rats = assay: V-maze test (PCP-disrupted visual-spatial working memory); assay type: in vivo, rat; settings: Co. No. 8 at doses 0.16 and 0.31 mg/kg p.o. 4 h before test, PCP 0.75 mg/kg s.c. 30 min prior to test
Description: Data are reported as Mean±SEM, n=12/group; ANOVA with LSD-post hoc, p vs. familiar arm: *** p<0.001, *<0.05. In FIG. 1, veh means vehicle and CPD means Co. No. 8
The V-maze-test is a two-trial short term visual-spatial working memory task based on spontaneous exploration of a new and a familiar arm in a 2-arm maze (Embrechts et al. (2013) “Longitudinal characterization of the TauPS2APP mouse model of Alzheimer's disease in a two trial discrimination task of visuo-spatial recognition memory”, 45th European Brain and Behaviour Society Meeting 6-9 Sep. 2013, Munich, Abstract P202).
Male Long Evans rats (Janvier, France, body weight 280 to 295 g) were group housed in enriched individually ventilated cages and habituated to environmental conditions for 5 days. After acclimatization, animals were single housed for 4 days until testing. During this period animals were handled for 2 min per day and received sham dosing once a day for 3 days prior to the test. […] The animal's exploration of each arm was automatically quantified using Ethovision XT 7.0 (Noldus, The Netherlands). […] The time spent in the familiar and new arm respectively during the choice session was recorded for 5 min.
Co. No. 8 was evaluated in rats in a series of dose-response studies evaluating doses from 0.16 to 0.63 mg/kg.

[1] = control animals, cumulative score over 60 min

T1 sequence (Q14416 19-872): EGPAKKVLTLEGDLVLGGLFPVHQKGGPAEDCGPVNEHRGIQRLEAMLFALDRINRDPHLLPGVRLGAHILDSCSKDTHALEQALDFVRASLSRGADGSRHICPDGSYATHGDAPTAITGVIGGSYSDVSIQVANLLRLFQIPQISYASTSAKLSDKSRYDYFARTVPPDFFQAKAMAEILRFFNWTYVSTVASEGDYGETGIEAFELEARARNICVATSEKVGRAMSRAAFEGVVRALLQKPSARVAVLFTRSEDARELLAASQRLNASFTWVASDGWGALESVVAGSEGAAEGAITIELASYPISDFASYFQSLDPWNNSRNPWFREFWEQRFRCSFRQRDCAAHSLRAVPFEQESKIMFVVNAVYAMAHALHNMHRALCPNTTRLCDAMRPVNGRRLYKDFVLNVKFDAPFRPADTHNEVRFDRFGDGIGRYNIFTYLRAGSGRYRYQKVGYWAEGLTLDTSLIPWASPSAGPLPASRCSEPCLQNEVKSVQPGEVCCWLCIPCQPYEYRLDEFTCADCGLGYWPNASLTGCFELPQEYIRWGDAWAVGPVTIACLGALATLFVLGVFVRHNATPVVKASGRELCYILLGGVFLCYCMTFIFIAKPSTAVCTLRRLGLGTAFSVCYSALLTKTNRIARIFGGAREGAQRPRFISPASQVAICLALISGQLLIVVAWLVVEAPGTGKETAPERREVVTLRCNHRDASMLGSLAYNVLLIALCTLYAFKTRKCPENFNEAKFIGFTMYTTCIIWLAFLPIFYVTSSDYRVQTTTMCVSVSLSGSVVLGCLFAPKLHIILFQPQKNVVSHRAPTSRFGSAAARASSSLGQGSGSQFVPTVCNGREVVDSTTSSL

melting point [°C] | GTPγS-hmGluR2 anGT Emax (human mGlu2 receptor) [%] | IC50 (human mGlu2 receptor) [M] | Emax (human mGlu2 receptor) [%] | SMILES | ED50 (Male Wiga Wistar rats; PO (oral route)) [mg/kg] | ED50 (rats; PO (oral route)) [mg/kg] | Palpebral opening score, occurrence score > 26 (%) (Male Wiga Wistar rats; [1]) | Palpebral opening score, occurrence score > 34 (%) (Male Wiga Wistar rats; [1]) | Palpebral opening score, median score (Male Wiga Wistar rats; control animals, scores cumulated over 60 min after apomorphine 1.0 mg/kg i.v., LY-404039 2.5 mg/kg s.c. 1 h before) | ED50 (Wiga rats; PO (oral route)) [mg/kg] | exploration of the new vs. the familiar arm in the V-maze (reversal of PCP deficit) (Male Long Evans rats) | ED50 (Male Wiga Wistar rats; SC (subcutaneous route)) [mg/kg] | ED50 (Wiga rats; SC (subcutaneous route)) [mg/kg] | ED50 (rats; SC (subcutaneous route)) [mg/kg]
162.59 | 111 | 1.26e-08 |  | COCC1CN(c2ccc(C(F)(F)F)cc2)C(=O)c2c(NC(=O)c3ccccc3F)cnn21 (single isomer, unassigned) [Co. No. 62a] | > 2.5 | > 2.5 |  |  |  |  |  |  |  | 
225.94 | 114 | 6.31e-09 |  | COCC1CN(c2ccc(C(F)(F)F)cc2)C(=O)c2c(NC(=O)c3ccc(N)nc3)cnn21 (single isomer, unassigned) [Co. No. 95] | > 2.5 | 1.26 |  |  |  |  |  |  |  | 
219.62 |  | 1.15e-09 | 109 | C[C@H]1CN(c2ccc(C(F)(F)F)c(Cl)c2)C(=O)c2c(NC(=O)c3ccc(N)nc3)cnn21 [Co. No. 1, 6-Amino-N-[(7S)-5-[3-chloro-4-(trifluoromethyl)phenyl]-7-methyl-4-oxo-6,7-dihydropyrazolo[1,5-a]pyrazin-3-yl]pyridine-3-carboxamide] | 0.39 | 0.26 |  |  |  | 14.1 |  |  |  | 
202.24 |  | 1.66e-09 | 106 | Cc1cc(N2C[C@H](C)n3ncc(NC(=O)c4ccc(N)nc4)c3C2=O)ccc1C(F)(F)F [Co. No. 4] | 1.26 | 0.5 |  |  |  |  |  |  |  | 
240.39 |  | 2.14e-09 | 110 | C[C@H]1CN(c2ccc(C(F)(F)F)cc2)C(=O)c2c(NC(=O)c3ccc(N)nc3)cnn21 [Co. No. 8, 6-Amino-N-[(7S)-7-methyl-4-oxo-5-[4-(trifluoromethyl)phenyl]-6,7-dihydropyrazolo[1,5-a]pyrazin-3-yl]pyridine-3-carboxamide] | 0.19 | 0.13 |  |  |  | 8.7 | significantly reversed the PCP deficit | 0.34 | 7.1 | 0.13
207.25 |  | 2.63e-09 | 109 | C[C@H]1CN(c2ccc(C(F)(F)F)c(F)c2)C(=O)c2c(NC(=O)c3ccc(N)nc3)cnn21 [Co. No. 13] | 0.2 | 0.32 |  |  |  |  |  |  |  | 
152.59 |  | 7.59e-09 | 107 | C[C@H]1CN(c2ccc(C(F)(F)F)cc2)C(=O)c2c(NC(=O)c3cccnc3)cnn21 [Co. No. 28] | 0.78 | 0.39 |  |  |  | 25 |  |  |  | 
154.26 |  | 2.75e-09 | 110 | Cc1cc(C(=O)Nc2cnn3c2C(=O)N(c2ccc(C(F)(F)F)cc2)C[C@@H]3C)cc(C)n1 [Co. No. 93] | 0.79 | 0.5 |  |  |  |  |  |  |  | 

More lines, now with the values behind:

SMILES | melting point [°C] | GTPγS-hmGluR2 anGT Emax (human mGlu2 receptor) [%] | IC50 (human mGlu2 receptor) [M] | Emax (human mGlu2 receptor) [%] | ED50 (Male Wiga Wistar rats; PO (oral route)) [mg/kg] | ED50 (rats; PO (oral route)) [mg/kg] | Palpebral opening score, occurrence score > 26 (%) (Male Wiga Wistar rats; [1]) | Palpebral opening score, occurrence score > 34 (%) (Male Wiga Wistar rats; [1]) | Palpebral opening score, median score (Male Wiga Wistar rats; control animals, scores cumulated over 60 min after apomorphine 1.0 mg/kg i.v., LY-404039 2.5 mg/kg s.c. 1 h before) | ED50 (Wiga rats; PO (oral route)) [mg/kg] | exploration of the new vs. the familiar arm in the V-maze (reversal of PCP deficit) (Male Long Evans rats) | ED50 (Male Wiga Wistar rats; SC (subcutaneous route)) [mg/kg] | ED50 (Wiga rats; SC (subcutaneous route)) [mg/kg] | ED50 (rats; SC (subcutaneous route)) [mg/kg]
CN1CCc2cccc3c2[C@H]1Cc1ccc(O)c(O)c1-3 [Apomorphine alone, apomorphine, reference compound] |  |  |  |  |  |  | 99.5 | 95.9 | 43 |  |  |  |  | 
Cc1cc(C(=O)Nc2cnn3c2C(=O)N(c2ccc(C(F)(F)F)c(Cl)c2)C[C@@H]3C)ccn1 [Co. No. 12] | 159.96 |  | 2.14e-09 | 107 | 0.42 | 0.32 |  |  |  | 21.5 |  |  |  | 
Cc1cncc(C(=O)Nc2cnn3c2C(=O)N(c2ccc(C(F)(F)F)c(Cl)c2)C[C@@H]3C)c1 [Co. No. 101, N-[(7S)-5-[3-chloro-4-(trifluoromethyl)phenyl]-7-methyl-4-oxo-6,7-dihydropyrazolo[1,5-a]pyrazin-3-yl]-5-methyl-pyridine-3-carboxamide] | 160.38 |  | 1.12e-09 | 107 | 0.18 | > 0.63 |  |  |  | 5 |  |  |  | 
Cc1cc(C(=O)Nc2cnn3c2C(=O)N(c2ccc(Cl)c(Cl)c2)C[C@@H]3C)cc(C)n1 [Co. No. 106] | 186.11 |  | 1.07e-09 | 108 | > 0.63 | > 0.63 |  |  |  |  |  |  |  | 
Cc1ccncc1C(=O)Nc1cnn2c1C(=O)N(c1ccc(C(F)(F)F)c(Cl)c1)C[C@@H]2C [Co. No. 120] | 145.92 |  | 1.82e-09 | 109 | > 0.63 | > 0.63 |  |  |  |  |  |  |  | 
Cc1cc(N2C[C@H](C)n3ncc(NC(=O)c4cccnc4)c3C2=O)ccc1C(F)(F)F [Co. No. 145] | 120.33 |  | 4.57e-09 | 105 | 0.5 | > 0.63 |  |  |  | 6.6 |  |  |  | 
C[C@H]1CN(c2ccc(C(F)(F)F)c(F)c2)C(=O)c2c(NC(=O)c3cccnc3)cnn21 [Co. No. 148] | 166.06 |  | 8.51e-09 | 105 | > 0.63 | > 0.63 |  |  |  |  |  |  |  | 
Cc1cc(C(=O)Nc2cnn3c2C(=O)N(c2ccc(Cl)c(Cl)c2)C[C@@H]3C)ccn1 [Co. No. 171] | 108.41 |  | 2.29e-09 | 104 | > 0.63 | > 0.63 |  |  |  |  |  |  |  | 
Cc1cnc(N)c(C(=O)Nc2cnn3c2C(=O)N(c2ccc(C(F)(F)F)c(C)c2)C[C@@H]3C)c1 [Co. No. 197] | 190.13 |  | 1.32e-09 | 108 |  | 0.13 |  |  |  | > 10 |  |  |  | 
